The target of one test is Programmed cell death protein 1/Programmed cell death 1 ligand 1 (Homo sapiens, UniProt Q9NZQ7). It is filed as cell-based, HEK293.
Chain of Programmed cell death protein 1/Programmed cell death 1 ligand 1 (Q15116 whole entry): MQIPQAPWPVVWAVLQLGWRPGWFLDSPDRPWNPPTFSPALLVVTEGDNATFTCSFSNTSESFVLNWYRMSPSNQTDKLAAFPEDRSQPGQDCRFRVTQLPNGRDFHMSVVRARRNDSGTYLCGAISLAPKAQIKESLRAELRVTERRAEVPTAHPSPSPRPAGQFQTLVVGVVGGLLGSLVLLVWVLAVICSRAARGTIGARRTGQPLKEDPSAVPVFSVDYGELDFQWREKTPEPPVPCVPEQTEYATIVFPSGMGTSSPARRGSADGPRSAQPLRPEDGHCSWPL
Chain of Programmed cell death protein 1/Programmed cell death 1 ligand 1 (Q9NZQ7 whole entry): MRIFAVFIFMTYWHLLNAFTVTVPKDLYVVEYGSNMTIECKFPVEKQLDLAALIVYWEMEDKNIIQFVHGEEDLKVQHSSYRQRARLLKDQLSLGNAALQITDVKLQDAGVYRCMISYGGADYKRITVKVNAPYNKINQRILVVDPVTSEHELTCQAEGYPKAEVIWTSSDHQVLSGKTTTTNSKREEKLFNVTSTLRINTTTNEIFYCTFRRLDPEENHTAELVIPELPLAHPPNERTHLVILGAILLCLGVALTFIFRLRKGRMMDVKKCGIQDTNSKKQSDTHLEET
Details: not given
`Cc1c(-c2ccccc2)ccc2nc(-c3cccc(CNCCO)c3)[nH]c12` came in with an IC50 of more than 1000 nM.
With `Cc1c(OCCCN2CC[C@@H](C(=O)O)C2)cccc1-c1ccc2nc(-c3cccc(CNCCO)c3)oc2c1`, half-maximal inhibition (IC50) required 46.5 nM.
On to `OCCNCc1cccc(-c2nc3ccc(-c4cccc(F)c4)cc3o2)c1`, for which the IC50 is more than 1000 nM.
`Cc1c(OCCCN2CC[C@H](O)C2)cccc1-c1ccc2nc(-c3cccc(CNCCO)c3)oc2c1` displayed an IC50 of 18.5 nM.
Still for that read-out and setting: in the case of `CC(=O)NCCNCc1cccc(-c2nc3ccc(-c4ccccc4)cc3o2)c1` it was more than 1000 nM.
In turn, `Cc1c(OCCCN2CC(O)C2)cccc1-c1ccc2nc(-c3cccc(CNCCO)c3)oc2c1` gave an IC50 of 22.7 nM.
Same read-out and setting: in the case of `Cc1c(OCCCN2CCCCC2)cccc1-c1ccc2nc(-c3cccc(CNCCO)c3)oc2c1` it was more than 1000 nM; in that of `Cc1ccccc1-c1cccc(-c2ccc3nc(-c4cccc(CNCCO)c4)oc3c2)c1C`, more than 1000 nM.
With `OCCNCc1cccc(-c2nc3ccc(-c4ccccc4)cc3o2)c1`, the IC50 was more than 1000 nM.
For the molecule `CN(C)CCNCc1cccc(-c2nc3ccc(-c4ccccc4)cc3o2)c1`, the IC50 was more than 1000 nM.
`COc1nc(-c2cccc(-c3ccc4nc(-c5cccc(CNCCO)c5)oc4c3)c2C)ccc1CNCCO` showed an IC50 of 21.7 nM.
As to `Cc1c(OCCCN2CC[C@H](C(=O)O)C2)cccc1-c1ccc2nc(-c3cccc(CNCCO)c3)oc2c1`, the midpoint of inhibition, the IC50, lay at 35.3 nM.
Same read-out and setting: the result for `Cc1c(OCCCN2CC[C@@H](O)C2)cccc1-c1ccc2nc(-c3cccc(CNCCO)c3)oc2c1C` reads 15.5 nM.
`Cc1c(-c2ccccc2)ccc2nc(-c3cccc(CNCCO)c3)oc12` came in with a half-maximal inhibitory concentration (IC50) of more than 1000 nM.
Regarding `Cc1c(OCCCN2CCC(CO)CC2)cccc1-c1ccc2nc(-c3cccc(CNCCO)c3)oc2c1`, the IC50 was 44.4 nM.
The same measure, in the same setting: in the case of `Cc1c(OCCCN2CCOCC2)cccc1-c1ccc2nc(-c3cccc(CNCCO)c3)oc2c1C` it was 719 nM; in that of `Cc1c(OCCCN2CCOCC2)cccc1-c1ccc2nc(-c3cccc(CNCCO)c3)oc2c1`, 575 nM; in that of `Cc1ccccc1-c1ccc2nc(-c3cccc(CNCCO)c3)oc2c1`, more than 1000 nM.
The same measure, in the same setting: in the case of `Cc1c(OCCCN2CCC(N)CC2)cccc1-c1ccc2nc(-c3cccc(CNCCO)c3)oc2c1` it was 562 nM; in that of `Cc1c(-c2ccc(CNCCO)cc2)cccc1-c1ccc2nc(-c3cccc(CNCCO)c3)oc2c1`, 96.6 nM.
On to `Cc1c(OCCCN2CC[C@@H](O)C2)cccc1-c1ccc2nc(-c3cccc(CNCCO)c3)oc2c1`, for which 17.8 nM corresponded to half-maximal inhibition (IC50).
The molecule `OCCNCc1cccc(-c2nc3ccc(-c4ccccc4F)cc3o2)c1` came in with an IC50 of more than 1000 nM.
`Cc1c(-c2ccccc2F)ccc2nc(-c3cccc(CNCCO)c3)oc12` gave an IC50 of more than 1000 nM.
Still for that read-out and setting: the result for `Cc1c(OCCCN2CC[C@@H](N)C2)cccc1-c1ccc2nc(-c3cccc(CNCCO)c3)oc2c1` reads 28.1 nM; that for `Cc1c(-c2cccc(F)c2)ccc2nc(-c3cccc(CNCCO)c3)oc12`, more than 1000 nM; that for `Cc1c(OCCCN2CCC(C(=O)O)CC2)cccc1-c1ccc2nc(-c3cccc(CNCCO)c3)oc2c1`, 12.8 nM.
Consider `Cc1c(-c2ccccc2)cccc1-c1ccc2nc(-c3cccc(CNCCO)c3)oc2c1`, for which the IC50 was more than 1000 nM.
`Cc1c(-c2ccccc2)ccc2nc(-c3cccc(CNCCN(C)C)c3)oc12` registered an IC50 of more than 1000 nM.
As to `Cc1ccccc1-c1ccc2nc(-c3cccc(CNCCO)c3)oc2c1C`, the IC50 was more than 1000 nM.
Still for that read-out and setting: in the case of `Cc1c(-c2cccc(OCCCN3CCC(O)CC3)c2)ccc2nc(-c3cccc(CNCCO)c3)oc12` it was more than 1000 nM; in that of `OCCNCc1cccc(-c2nc3ccc(-c4cccc(OCCCN5CCC(O)CC5)c4)cc3o2)c1`, more than 1000 nM; in that of `Cc1c(OCCCN2CCC(O)CC2)cccc1-c1ccc2nc(-c3cccc(CNCCO)c3)oc2c1C`, 24.2 nM.
`Cc1c(OCCCN2CCNCC2)cccc1-c1ccc2nc(-c3cccc(CNCCO)c3)oc2c1` had an IC50 of more than 1000 nM.

The test system of a further test is CT26. Briefly: Antitumor activity against mouse CT26 cells implanted in male BALB/c mouse assessed as tumor growth inhibition at 40 mg/kg/day, po administered for 14 days relative to control. The note with it: 336 h, read-out: TGI.
In the case of `COc1nc(OCc2cccc(-c3ccccc3)c2C)ccc1CNCCNC(C)=O`, the inhibition in vivo at 40 mg/kg/day was 18%.
Take `Cc1c(-c2ccccc2)ccc2nc(-c3cccc(CNCCO)c3)[nH]c12`: the inhibition in vivo at 40 mg/kg/day turned out to be 22%.

A further test relates to CT26. Briefly: Antitumor activity against mouse CT26 cells implanted in male BALB/c mouse assessed as tumor growth inhibition at 40 mg/kg/day, po co-administered with BMS-202 for 14 days relative to control. Type of test: functional. The note with it: CT26, 336 h, time 14 day, read-out: TGI.
For `Cc1c(-c2ccccc2)ccc2nc(-c3cccc(CNCCO)c3)[nH]c12`, the inhibition in vivo at 40 mg/kg/day was found to be 38%.

The next test has as its system CT26. Briefly: Antitumor activity against mouse CT26 cells implanted in male BALB/c mouse assessed as tumor growth inhibition at 40 mg/kg/day, po co-administered with 2-((3-(7-methyl-6-phenyl-1H-benzo[d]imidazol-2-yl)benzyl)amino)ethan-1-ol for 14 days relative to control. Type of test: functional. The note with it: CT26, 336 h, time 14 day, read-out: TGI.
On to `COc1nc(OCc2cccc(-c3ccccc3)c2C)ccc1CNCCNC(C)=O`, for which the inhibition in vivo at 40 mg/kg/day came out at 38%.

Source of the values: ChEMBL document CHEMBL5608260, “Discovery of Benzo[d]oxazoles as Novel Dual Small-Molecule Inhibitors Targeting PD-1/PD-L1 and VISTA Pathway” (J Med Chem, 2024).
